Reference: US8344008B2 (Janssen Pharmaceutica NV, priority 2007, dated 2013)

Molecular target: T1, recombinant human LTA4 hydrolase (rhLTA4H) (Homo sapiens, UniProt P09960)
T1 construct: made in house; host or cells: Spodoptera frugiperda (Sf-9) cells, baculovirus (pFastBac1)
T1 sequence (P09960 1-611): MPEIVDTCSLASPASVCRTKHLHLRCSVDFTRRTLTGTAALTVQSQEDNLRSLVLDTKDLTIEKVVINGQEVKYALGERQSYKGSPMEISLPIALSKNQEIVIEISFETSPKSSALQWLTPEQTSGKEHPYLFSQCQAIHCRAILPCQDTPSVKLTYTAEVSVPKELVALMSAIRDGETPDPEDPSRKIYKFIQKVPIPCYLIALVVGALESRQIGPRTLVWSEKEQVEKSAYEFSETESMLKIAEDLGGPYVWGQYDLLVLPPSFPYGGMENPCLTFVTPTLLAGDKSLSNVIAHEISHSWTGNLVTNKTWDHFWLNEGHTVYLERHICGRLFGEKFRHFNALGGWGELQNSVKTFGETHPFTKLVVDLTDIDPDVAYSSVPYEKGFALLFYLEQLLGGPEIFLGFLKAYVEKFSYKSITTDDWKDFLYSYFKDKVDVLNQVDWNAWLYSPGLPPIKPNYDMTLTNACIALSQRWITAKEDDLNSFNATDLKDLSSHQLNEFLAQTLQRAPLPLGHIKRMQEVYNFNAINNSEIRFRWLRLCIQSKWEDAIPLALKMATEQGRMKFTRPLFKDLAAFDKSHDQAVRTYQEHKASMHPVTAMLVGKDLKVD
Test: Recombinant Human LTA4 Hydrolase Assay for LTA4 Hydrolase Inhibitor Activity
Type: biochemical
Settings: average of results obtained; LTB4 quantified by enzyme-linked immunoassay
Description: Biological Methods: Recombinant Human LTA4 Hydrolase Assay for LTA4 Hydrolase Inhibitor Activity
Compounds of the present invention were tested for LTA4 hydrolase inhibitor activity against recombinant human LTA4 hydrolase (rhLTA4H). Vectors were prepared and used to express rhLTA4H essentially as follows: LTA4 hydrolase encoding DNA was amplified by polymerase chain reaction (PCR) using a human placental cDNA library as a template. Oligonucleotide primers for the PCR reaction were based on the 5′-end, and the complement of the 3′-end, of the published nucleotide sequence for the coding region of the human LTA4 hydrolase gene (C. D. Funk et al., Proc. Natl. Acad. Sci. USA 1987, 84:6677-6681). The amplified 1.9 kb DNA fragment encoding LTA4 hydrolase was isolated and cloned into the pFastBac1 vector (Invitrogen). Recombinant baculovirus was generated as described by the manufacturer, and used to infect Spodoptera frugiperda (Sf-9) cells. Recombinant LTA4 hydrolase enzyme was purified from the infected Sf-9 cells essentially as described by J. K. Gierse et al. (Protein Expression and Purification 1993, 4:358-366). The purified enzyme solution was adjusted to contain 0.29 mg/mL LTA4 hydrolase, 50 mM Tris (pH 8.0), 150 mM NaCl, 5 mM dithiothreitol, 50% glycerol, and EDTA-free Complete protease inhibitor cocktail (Roche). The specific activity of the enzyme was about 3.8 μmol/min/mg.
LTA4 substrate was prepared from the methyl ester of LTA4 (Cayman Chemical) by treatment with 67 equiv of NaOH under nitrogen at rt for 40 min. The LTA4 substrate in its free acid form was kept frozen at −80° C. until needed. Each compound was diluted to different concentrations in assay buffer (0.1 M potassium phosphate (pH 7.4), 5 mg/mL fatty acid free BSA) containing 10% DMSO. A 25-uL aliquot of each compound dilution was incubated for 10 min at rt with an equal volume of assay buffer containing 36 ng of recombinant human LTA4H. The solution was then adjusted to 200 μL with assay buffer. LTA4 (free acid) was thawed and diluted in assay buffer to a concentration of 357 ng/mL, and 25 μL (9 ng) of LTA4 substrate was added to the reaction mixture (total volume=225 μL) at time zero. Each reaction was carried out at rt for 10 min. The reaction was stopped by diluting 10 μL of the reaction mixture with 200 μL of assay buffer. LTB4 was quantified in the diluted sample by a commercially available enzyme-linked immunoassay (Cayman Chemical Co.), as recommended by the manufacturer. Positive controls, under essentially identical conditions but without addition of an inhibitor compound, and negative controls, containing all assay components except enzyme, were routinely run in each experiment. […]
Results for the compounds tested in this assay are presented in Table 1 as an average of results obtained.

Row | SMILES | Ki [µM]
1 | O=C(c1ccoc1)N1CC2CN(Cc3ccc(Oc4nc5ccccc5s4)cc3)CC2C1 (centres unmarked) [Example 110, {5-[4-(Benzothiazol-2-yloxy)-benzyl]-hexahydro-pyrrolo[3,4-c]pyrrol-2-yl}-furan-3-yl-methanone] | 0.088
2 | O=C(CO)N1CCC2CN(Cc3ccc(Oc4nc5ccccc5s4)cc3)CC2C1 (centres unmarked) [Example 116, 1-{2-[4-(Benzothiazol-2-yloxy)-benzyl]-octahydro-pyrrolo[3,4-c]pyridin-5-yl}-2-hydroxy-ethanone] | 0.013
3 | CC(=O)N1[C@@H]2CC[C@H]1C[C@H](NCc1ccc(Oc3nc4cc(F)ccc4s3)cc1)C2 [Example 165, meso-exo-1-{3-[4-(5-Fluoro-benzothiazol-2-yloxy)-benzylamino]-8-aza-bicyclo[3.2.1]oct-8-yl}-ethanone] | 0.414
4 | O=C(CO)N1CC2CN(Cc3ccc(Oc4nc5ccccc5s4)cc3)CC2C1 (centres unmarked) [Example 118, 1-{5-[4-(Benzothiazol-2-yloxy)-benzyl]-hexahydro-pyrrolo[3,4-c]pyrrol-2-yl}-2-hydroxy-ethanone] | 0.023
5 | CS(=O)(=O)N1CC2CCC(C1)N2Cc1ccc(Oc2nc3c(F)cccc3s2)cc1 [Example 258, meso-4-Fluoro-2-[4-(3-methanesulfonyl-3,8-diaza-bicyclo[3.2.1]oct-8-ylmethyl)-phenoxy]-benzothiazole] | 0.008
6 | Cc1ccc2nc(Oc3ccc(CCN4C5CCC4CN(S(C)(=O)=O)C5)cc3)sc2c1 [Example 214, meso-2-{4-[2-(3-Methanesulfonyl-3,8-diaza-bicyclo[3.2.1]oct-8-yl)-ethyl]-phenoxy}-6-methyl-benzothiazole] | 0.543
7 | CC(=O)N1C[C@H]2C[C@@H]1CN2CCOc1ccc(Oc2nc3cccc(F)c3s2)cc1 [Example 218, (R,R)-1-(5-{2-[4-(7-Fluoro-benzothiazol-2-yloxy)-phenoxy]-ethyl}-2,5-diaza-bicyclo[2.2.1]hept-2-yl)-ethanone] | 0.02
8 | O=C(CF)N1CC2CN(Cc3ccc(Oc4nc5ccccc5s4)cc3)CC2C1 (centres unmarked) [Example 112, 1-{5-[4-(Benzothiazol-2-yloxy)-benzyl]-hexahydro-pyrrolo[3,4-c]pyrrol-2-yl}-2-fluoro-ethanone] | 0.002
9 | CS(=O)(=O)N1CC2CN(Cc3ccc(Cc4nc5ccccc5s4)cc3)CC2C1 (centres unmarked) [Example 150, 2-[4-(5-Methanesulfonyl-hexahydro-pyrrolo[3,4-c]pyrrol-2-ylmethyl)-benzyl]-benzothiazole] | 0.193
10 | CC(=O)N1C[C@H]2C[C@@H]1CN2Cc1ccc(Oc2nc3ccccc3s2)cc1 [Example 3, (R,R)-1-{5-[4-(Benzothiazol-2-yloxy)-benzyl]-2,5-diaza-bicyclo[2.2.1]hept-2-yl}-ethanone] | 0.007
11 | O=C(c1cccs1)N1C[C@@H]2C[C@H]1CN2Cc1ccc(Oc2nc3ccccc3s2)cc1 [Example 61, (S,S)-{5-[4-(Benzothiazol-2-yloxy)-benzyl]-2,5-diaza-bicyclo[2.2.1]hept-2-yl}-thiophen-2-yl-methanone] | 0.027
12 | CC(=O)N1C[C@@H]2C[C@H]1CN2Cc1cccc(Oc2nc3ccccc3s2)c1 [Example 2, (S,S)-1-{5-[3-(Benzothiazol-2-yloxy)-benzyl]-2,5-diaza-bicyclo[2.2.1]hept-2-yl}-ethanone] | 0.508
13 | NS(=O)(=O)N1CC2CN(Cc3ccc(Oc4nc5ccccc5s4)cc3)CC2C1 (centres unmarked) [Example 119, 5-[4-(Benzothiazol-2-yloxy)-benzyl]-hexahydro-pyrrolo[3,4-c]pyrrole-2-sulfonic acid amide] | 0.072
14 | NC(=O)N1C[C@@H]2C[C@H]1CN2CCc1cccc(Oc2nc3ccccc3s2)c1 [Example 39, (S,S)-5{2-[3-(Benzothiazol-2-yloxy)-phenyl]-ethyl}2,5-diaza-bicyclo[2.2.1]heptane-2-carboxylic acid amide] | 0.1
15 | NC(=O)N1C[C@@H]2C[C@H]1CN2Cc1ccc(Cc2nc3ccccc3s2)cc1 [Example 35, (S,S)-5-(4-Benzothiazol-2-ylmethyl-benzyl)-2,5-diaza-bicyclo[2.2.1]heptane-2-carboxylic acid amide] | 0.093
16 | CS(=O)(=O)N1C[C@H]2C[C@@H]1CN2CCOc1ccc(Oc2nc3c(Cl)cccc3s2)cc1 [Example 203, (R,R)-4-Chloro-2-{4-[2-(5-methanesulfonyl-2,5-diaza-bicyclo[2.2.1]hept-2-yl)-ethoxy]-phenoxy}-benzothiazole] | 0.293
17 | CC(=O)N1CC2CCC(C1)N2CCOc1ccc(Oc2nc3cccc(Cl)c3s2)cc1 [Example 283, meso-1-(8-{2-[4-(7-Chloro-benzothiazol-2-yloxy)-phenoxy]-ethyl}-3,8-diaza-bicyclo[3.2.1]oct-3-yl)-ethanone] | 0.338
18 | CS(=O)(=O)N1[C@@H]2CC[C@H]1C[C@@H](NCCOc1ccc(Oc3nc4cccc(Cl)c4s3)cc1)C2 [Example 248, meso-endo-{2-[4-(7-Chloro-benzothiazol-2-yloxy)-phenoxy]-ethyl}-(8-methanesulfonyl-8-aza-bicyclo[3.2.1]oct-3-yl)-amine] | 3.13
19 | NC(=O)N1C[C@@H]2C[C@H]1CN2Cc1ccc(Oc2nc3ccccc3s2)cc1 [Example 32, (S,S)-5-[4-(Benzothiazol-2-yloxy)-benzyl]-2,5-diaza-bicyclo[2.2.1]heptane-2-carboxylic acid amide] | 0.003
20 | NC(=O)NC1[C@H]2CN(Cc3ccc(Oc4nc5ccccc5s4)cc3)C[C@@H]12 (stereo partly drawn) [Example 140, (R,S)-{3-[4-(Benzothiazol-2-yloxy)-benzyl]-3-aza-bicyclo[3.1.0]hex-6-yl}-urea] | 0.019
21 | CS(=O)(=O)N1[C@@H]2CC[C@H]1C[C@H](NCc1ccc(Oc3nc4cc(Cl)ccc4s3)cc1)C2 [Example 185, meso-exo-[4-(5-Chloro-benzothiazol-2-yloxy)-benzyl]-(8-methanesulfonyl-8-aza-bicyclo[3.2.1]oct-3-yl)-amine] | 0.965
22 | COCC(=O)N1C[C@H]2C[C@@H]1CN2Cc1ccc(Oc2nc3ccccc3s2)cc1 [Example 21, (R,R)-1-{5-[4-(Benzothiazol-2-yloxy)-benzyl]-2,5-diaza-bicyclo[2.2.1]hept-2-yl}-2-methoxy-ethanone] | 0.013
23 | Cc1ccc2nc(Oc3ccc(CCN[C@@H]4C[C@H]5CC[C@@H](C4)N5C(N)=O)cc3)sc2c1 [Example 173, meso-exo-3-{2-[4-(6-Methyl-benzothiazol-2-yloxy)-phenyl]-ethylamino}-8-aza-bicyclo[3.2.1]octane-8-carboxylic acid amide] | 0.973
24 | CS(=O)(=O)N[C@@H]1C[C@H]2CC[C@@H](C1)N2CCOc1ccc(Oc2nc3ccc(F)cc3s2)cc1 [Example 284, meso-exo-N-(8-{2-[4-(6-Fluoro-benzothiazol-2-yloxy)-phenoxy]-ethyl}-8-aza-bicyclo[3.2.1]oct-3-yl)-methanesulfonamide] | 0.029
25 | CC(=O)N1C[C@@H]2C[C@H]1CN2CCc1ccc(Oc2nc3ccccc3s2)cc1 [Example 7, (S,S)-1-(5-{2-[4-(Benzothiazol-2-yloxy)-phenyl]-ethyl}-2,5-diaza-bicyclo[2.2.1]hept-2-yl)-ethanone] | 0.013
26 | NC(=O)N1C[C@@H]2CCN(Cc3ccc(Oc4nc5ccccc5s4)cc3)[C@@H]2C1 [Example 137, (S,S)-1-[4-(Benzothiazol-2-yloxy)-benzyl]-hexahydro-pyrrolo[3,4-b]pyrrole-5-carboxylic acid amide] | 0.018
